Results published in patent publication US10722520B2, “Heterocyclic compounds and their use in preventing or treating bacterial infections” (MUTABILIS, priority 2016, dated 2020).

Assays:
[1] = system: E. coli UFR39; assay: MIC of compound alone, broth microdilution; type: cell-based; settings: Escherichia coli, UFR39, read-out: MIC CAZ alone
How it was run: (§1)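 Growth inhibition was scored by eye after 16-20 h at 35° C (room air), with bacteria from log phase seeded at 5×10^5 cfu/mL final in cation-adjusted Mueller-Hinton medium.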

[2] = system: E. cloacae P99; assay: MIC of compound alone, broth microdilution; type: cell-based; settings: strain P99; compound alone
How it was run: as §1

[3] = system: E. coli 190317; assay: MIC of compound alone, broth microdilution; type: cell-based; settings: strain 190317; compound alone
How it was run: as §1

[4] = system: K. pneumoniae 6299; assay: MIC of compound alone, broth microdilution; type: cell-based; settings: strain 6299; compound alone
How it was run: as §1

[5] = system: K. pneumoniae BAA-1898; assay: MIC of compound alone, broth microdilution; type: cell-based; settings: strain BAA-1898; compound alone
How it was run: as §1

[6] = system: P. aeruginosa CIP107051; assay: MIC of compound alone, broth microdilution; type: cell-based; settings: strain CIP107051; compound alone
How it was run: as §1

[7] = system: E. cloacae P99; assay: MIC of ceftazidime (CAZ) at fixed concentration of compound (synergy), broth microdilution; type: cell-based; settings: strain P99; MIC of CAZ, compound fixed at 4 μg/mL
How it was run: as §1

[8] = system: E. coli 190317; assay: as above; type: cell-based; settings: strain 190317; MIC of CAZ, compound fixed at 4 μg/mL
How it was run: as §1

[9] = system: K. pneumoniae 6299; assay: as above; type: cell-based; settings: strain 6299; MIC of CAZ, compound fixed at 4 μg/mL
How it was run: as §1

[10] = system: K. pneumoniae BAA-1898; assay: as above; type: cell-based; settings: strain BAA-1898; MIC of CAZ, compound fixed at 4 μg/mL
How it was run: as §1

[11] = system: P. aeruginosa CIP107051; assay: as above; type: cell-based; settings: strain CIP107051; MIC of CAZ, compound fixed at 4 μg/mL
How it was run: as §1

[12] = biological target: AmpC (P99) (Enterobacter cloacae, UniProt P05364); settings: read-out: IC50 β-lactamase AmpC (P99); class (C); nitrocefin 200 μM, 30-min pre-incubation, enzyme 0.2 nM
[13] = biological target: CMY-37 (Citrobacter freundii, UniProt P05193); settings: read-out: IC50 β-lactamase CMY-37; class (C); nitrocefin 200 μM, 30-min pre-incubation, enzyme 0.2 nM
[14] = biological target: AmpC (PAE) (Pseudomonas aeruginosa, UniProt P24735); settings: read-out: IC50 β-lactamase AmpC (PAE); class (C); nitrocefin 200 μM, 30-min pre-incubation, enzyme 0.4 nM
[15] = biological target: OXA-15 (Pseudomonas aeruginosa, UniProt Q51574); settings: read-out: IC50 β-lactamase OXA-15; class (D); nitrocefin 200 μM, 30-min pre-incubation, enzyme 0.4 nM
[16] = biological target: TEM-1 (Escherichia coli, UniProt P62593); settings: read-out: IC50 β-lactamase TEM-1; class (A); nitrocefin 200 μM, 30-min pre-incubation, enzyme 0.1 nM
[17] = biological target: SHV-1 (Klebsiella pneumoniae, UniProt P0AD64); settings: read-out: IC50 β-lactamase SHV-1; class (A); nitrocefin 200 μM, 30-min pre-incubation, enzyme 0.075 nM
[18] = biological target: CTX-M-15 (Escherichia coli, UniProt Q9EXV5); settings: read-out: IC50 β-lactamase CTX-M-15; class (A); nitrocefin 200 μM, 30-min pre-incubation, enzyme 0.4 nM
[19] = biological target: KPC-2 (Klebsiella pneumoniae, UniProt Q9F663); settings: read-out: IC50 β-lactamase KPC-2; class (A); nitrocefin 200 μM, 30-min pre-incubation, enzyme 1 nM
[20] = biological target: OXA-1 (Escherichia coli, UniProt P13661); settings: read-out: IC50 β-lactamase OXA-1; class (D); nitrocefin 200 μM, 30-min pre-incubation, enzyme 0.2 nM
[21] = biological target: OXA-11 (Pseudomonas aeruginosa, UniProt Q06778); settings: read-out: IC50 β-lactamase OXA-11; class (D); nitrocefin 200 μM, 30-min pre-incubation, enzyme 1.2 nM
[22] = biological target: OXA-48 (Klebsiella pneumoniae, UniProt Q6XEC0); settings: read-out: IC50 β-lactamase OXA-48; class (D); nitrocefin 200 μM, 30-min pre-incubation, enzyme 0.3 nM

CC(C)(O/N=C(\C(=O)N[C@@H]1C(=O)N2C(C(=O)[O-])=C(C[n+]3ccccc3)CS[C@H]12)c1csc(N)n1)C(=O)O [CAZ, ceftazidime, reference compound]
MIC [1]: > 1020 µg/mL

O=C1N2CC(n3cc(-c4nccs4)nn3)=CC(C2)N1OS(=O)(=O)[O-].[Na+] (stereo not shown) [Example 55, sodium [7-oxo-3-(4-thiazol-2-yltriazol-1-yl)-1,6-diazabicyclo[3.2.1]oct-3-en-6-yl]sulfate]
MIC compounds of the invention alone [2]: >32 µg/mL
MIC compounds of the invention alone [3]: >32 µg/mL
MIC compounds of the invention alone [4]: >32 µg/mL
MIC compounds of the invention alone [5]: >32 µg/mL
MIC compounds of the invention alone [6]: >32 µg/mL
MIC combination of CAZ and compounds of the invention at 4 μg/mL [7]: 8 µg/mL
MIC combination of CAZ and compounds of the invention at 4 μg/mL [8]: 0.25 µg/mL
MIC combination of CAZ and compounds of the invention at 4 μg/mL [9]: 4 µg/mL
MIC combination of CAZ and compounds of the invention at 4 μg/mL [10]: 1 µg/mL
MIC combination of CAZ and compounds of the invention at 4 μg/mL [11]: 8 µg/mL
IC50 [12]: 6.3 nM
IC50 [13]: 35 nM
IC50 [14]: 230 nM
IC50 [15]: 3.4 nM
IC50 [16]: 0.14 nM
IC50 [17]: 0.61 nM
IC50 [18]: 0.41 nM
IC50 [19]: 0.82 nM
IC50 [20]: 26 nM
IC50 [21]: 25 nM
IC50 [22]: 0.27 nM

O=C([O-])CCc1cn(C2=CC3CN(C2)C(=O)N3OS(=O)(=O)[O-])nn1.[Na+].[Na+] (stereo not shown) [Example 65, disodium [3-[4-(propanoate)triazol-1-yl]-7-oxo-1,6-diazabicyclo[3.2.1]oct-3-en-6-yl]sulfate]
MIC compounds of the invention alone [2]: 32 µg/mL
MIC compounds of the invention alone [3]: 32 µg/mL
MIC compounds of the invention alone [4]: 32 µg/mL
MIC compounds of the invention alone [5]: 32 µg/mL
MIC compounds of the invention alone [6]: >32 µg/mL
MIC combination of CAZ and compounds of the invention at 4 μg/mL [7]: 8 µg/mL
MIC combination of CAZ and compounds of the invention at 4 μg/mL [8]: 0.5 µg/mL
MIC combination of CAZ and compounds of the invention at 4 μg/mL [9]: 2 µg/mL
MIC combination of CAZ and compounds of the invention at 4 μg/mL [10]: 64 µg/mL
MIC combination of CAZ and compounds of the invention at 4 μg/mL [11]: 8 µg/mL
IC50 [12]: 11 nM
IC50 [13]: 13 nM
IC50 [14]: 490 nM
IC50 [15]: 6.7 nM
IC50 [16]: 0.27 nM
IC50 [17]: 2.8 nM
IC50 [18]: 0.96 nM
IC50 [19]: 6 nM
IC50 [20]: 53 nM
IC50 [21]: 270 nM
IC50 [22]: 0.8 nM

NC(=O)c1nn(C2=CC3CN(C2)C(=O)N3OS(=O)(=O)[O-])cc1F.[Na+] (stereo not shown) [Example 26, sodium (7-oxo-3-(3-carboxamide-4-fluoro-pyrazol-1-yl)-1,6-diazabicyclo[3.2.1]oct-3-en-6-yl) sulfate]
MIC compounds of the invention alone [2]: 16 µg/mL
MIC compounds of the invention alone [3]: 4 µg/mL
MIC compounds of the invention alone [4]: 16 µg/mL
MIC compounds of the invention alone [5]: 16 µg/mL
MIC compounds of the invention alone [6]: >32 µg/mL
MIC combination of CAZ and compounds of the invention at 4 μg/mL [7]: 1 µg/mL
MIC combination of CAZ and compounds of the invention at 4 μg/mL [8]: <0.25 µg/mL
MIC combination of CAZ and compounds of the invention at 4 μg/mL [9]: ≤0.25 µg/mL
MIC combination of CAZ and compounds of the invention at 4 μg/mL [10]: 0.5 µg/mL
MIC combination of CAZ and compounds of the invention at 4 μg/mL [11]: 4 µg/mL
IC50 [12]: 14 nM
IC50 [13]: 36 nM
IC50 [14]: 130 nM
IC50 [15]: 13 nM
IC50 [16]: 0.23 nM
IC50 [17]: 1.2 nM
IC50 [18]: 0.72 nM
IC50 [19]: 3.2 nM
IC50 [20]: 33 nM
IC50 [21]: 9.8 nM
IC50 [22]: 7.8 nM

NCc1cn(C2=CC3CN(C2)C(=O)N3OS(=O)(=O)[O-])nn1.O=C(O)C(F)(F)F.[Na+] (stereo not shown) [Example 57, sodium and 2,2,2-trifluoroacetate [3-[4-(ammoniummethyl)triazol-1-yl]-7-oxo-1,6-diazabicyclo[3.2.1]oct-3-en-6-yl]sulfate]
MIC compounds of the invention alone [2]: 1 µg/mL
MIC compounds of the invention alone [3]: 0.5 µg/mL
MIC compounds of the invention alone [4]: >32 µg/mL
MIC compounds of the invention alone [5]: 16 µg/mL
MIC compounds of the invention alone [6]: 16 µg/mL
MIC combination of CAZ and compounds of the invention at 4 μg/mL [7]: <0.25 µg/mL
MIC combination of CAZ and compounds of the invention at 4 μg/mL [8]: <0.25 µg/mL
MIC combination of CAZ and compounds of the invention at 4 μg/mL [9]: ≤0.25 µg/mL
MIC combination of CAZ and compounds of the invention at 4 μg/mL [10]: ≤0.25 µg/mL
MIC combination of CAZ and compounds of the invention at 4 μg/mL [11]: 4 µg/mL
IC50 [12]: 21 nM
IC50 [13]: 31 nM
IC50 [14]: 550 nM
IC50 [15]: 6.4 nM
IC50 [16]: 0.37 nM
IC50 [17]: 2.6 nM
IC50 [18]: 0.75 nM
IC50 [19]: 11 nM
IC50 [20]: 66 nM
IC50 [21]: 170 nM
IC50 [22]: 1.1 nM

O=C1N2CC(n3cc(S(=O)(=O)NCCO)cn3)=CC(C2)N1OS(=O)(=O)[O-].[Na+] (stereo not shown) [Example 74, sodium [3-[4-(2-hydroxyethylsulfamoyl)pyrazol-1-yl]-7-oxo-1,6-diazabicyclo[3.2.1]oct-3-en-6-yl]sulfate]
MIC compounds of the invention alone [2]: 16 µg/mL
MIC compounds of the invention alone [3]: 8 µg/mL
MIC compounds of the invention alone [4]: 16 µg/mL
MIC compounds of the invention alone [5]: 16 µg/mL
MIC compounds of the invention alone [6]: >32 µg/mL
MIC combination of CAZ and compounds of the invention at 4 μg/mL [7]: 0.5 µg/mL
MIC combination of CAZ and compounds of the invention at 4 μg/mL [8]: ≤0.25 µg/mL
MIC combination of CAZ and compounds of the invention at 4 μg/mL [9]: ≤0.25 µg/mL
MIC combination of CAZ and compounds of the invention at 4 μg/mL [10]: 0.25 µg/mL
MIC combination of CAZ and compounds of the invention at 4 μg/mL [11]: 8 µg/mL
IC50 [12]: 9.5 nM
IC50 [13]: 25 nM
IC50 [14]: 110 nM
IC50 [15]: 48 nM
IC50 [16]: 0.34 nM
IC50 [17]: 2.2 nM
IC50 [18]: 1.1 nM
IC50 [19]: 3 nM
IC50 [20]: 22 nM
IC50 [21]: 20 nM
IC50 [22]: 2.9 nM

Cc1cc(C(N)=O)nn1C1=CC2CN(C1)C(=O)N2OS(=O)(=O)[O-].[Na+] (stereo not shown) [Example 23, sodium (7-oxo-3-(3-carboxamide-5-methyl-pyrazol-1-yl)-1,6-diazabicyclo[3.2.1]oct-3-en-6-yl) sulfate]
MIC compounds of the invention alone [2]: >32 µg/mL
MIC compounds of the invention alone [3]: >32 µg/mL
MIC compounds of the invention alone [4]: >32 µg/mL
MIC compounds of the invention alone [5]: >32 µg/mL
MIC compounds of the invention alone [6]: >32 µg/mL
MIC combination of CAZ and compounds of the invention at 4 μg/mL [7]: 8 µg/mL
MIC combination of CAZ and compounds of the invention at 4 μg/mL [8]: 0.5 µg/mL
MIC combination of CAZ and compounds of the invention at 4 μg/mL [9]: 4 µg/mL
MIC combination of CAZ and compounds of the invention at 4 μg/mL [10]: 4 µg/mL
MIC combination of CAZ and compounds of the invention at 4 μg/mL [11]: 16 µg/mL
IC50 [12]: 38 nM
IC50 [13]: 54 nM
IC50 [14]: 220 nM
IC50 [15]: 760 nM
IC50 [16]: 0.19 nM
IC50 [17]: 0.36 nM
IC50 [18]: 1 nM
IC50 [19]: 5.7 nM
IC50 [20]: 1500 nM
IC50 [21]: 1100 nM
IC50 [22]: 110 nM
